Assay results published in patent publication US20120252721A1 (priority 2011, published 2012).

What was measured:
[1] = tested on: HCV genotype 1b replicon, NS5B S282T; assay: Luciferase replicon transient transfection assay, genotype 1b NS5B S282T; assay type: cell-based, hepatitis C virus
Protocol: (§1) The luciferase replicon transient transfection assay measures the ability of a test compound to inhibit the replication of a transiently-transfected HCV luciferase-bearing wild-type or mutant replicon in cured human hepatoma cells (Huh7.5). The inhibition of HCV replication was measured by quantification of luciferase protein expression. This assay has been validated using a panel of genotype 1a and 1b replicons bearing mutations known to be associated with resistance to BMS-790052. Briefly, subconfluent Huh7.5 cells were electroporated with 10 μg of wild-type or mutant luciferase-bearing HCV replicon RNA. The cells were then seeded in 96-well opaque white plates at 3×10^4 cells/well in 150 μL/well and incubated for 4 hrs at 37° C./5% CO2. […] The plates were agitated on a rotating platform at room temperature for 3 min and read in a Victor^3V microplate reader (Perkin-Elmer) using a 700 nm cut-off filter with a 1 sec read time. EC50 values were calculated from dose response curves from the resulting best-fit equations determined by Microsoft Excel and XLfit 4.1 software.
(§2) To determine the replication capacity of each mutant relative to the wild-type parental replicon, transfected cells were plated on two plates and were not treated with compound. Luciferase activity was measured at time points of 4 hrs and 4 days after plating for each replicon. […]

[2] = tested on: HCV genotype 1b replicon, NS5B C316Y; assay: Luciferase replicon transient transfection assay, genotype 1b NS5B C316Y; assay type: cell-based, hepatitis C virus
Protocol: as §1, §2

Compound COC(=O)N[C@H](C(=O)N1CCC[C@H]1c1nc2cc(-c3csc4c(-c5ccc(-c6cnc([C@@H]7CCCN7C(=O)[C@H](NC(=O)OC)c7ccccc7)[nH]6)cc5)csc34)ccc2[nH]1)C(C)C [Compound A169, [(S)-1-((S)-2-{6-[6-(4-{(S)-2-[1-((R)-2-methoxycarbonylamino-2-phenyl-acetyl)-pyrrolidin-2-yl]-3H-imidazol-4-yl}-phenyl)-thieno[3,2-b]thiophen-3-yl]-1H-benzoimidazol-2-yl}-pyrrolidine-1-carbonyl)-2-methyl-propyl]-carbamic acid methyl ester] has an EC50 ([1]; Hepatitis C virus, genotype 1b, NS5B mutation S282T (confers resistance to 2′-C-Methylnucleoside)) of 1.4 pM, a Ratio ([1]; {}) of 0.83 and an EC50 ([2]; Hepatitis C virus, genotype 1b, NS5B mutation C316Y (confers resistance to Benzofuran/Benzothiadiazine)) of 2.3 pM. For the same compound, the Ratio ([2]; {}) was 1.37.
